Test [1] addresses T1, recombinant human adrenergic beta 1 receptors (Homo sapiens, UniProt P08588).
T1 construct: purchased Euroscreen
Nature of the test: Adrenergic β1 selectivity binding assay ([125I]-Iodocyanopindolol). The note with it: inhibition of [125I]-Iodocyanopindolol binding, human β1 membranes; read-out: β1 bind p IC50 (converted). As for the experimental part:
Membranes containing recombinant human adrenergic beta 1 receptors were obtained from Euroscreen. These were diluted in Assay Buffer (50 mM HEPES, 1 mM EDTA, 120 mM NaCl, 0.1% gelatin, pH 7.4) to provide a final concentration of membranes that gave a clear window between maximum and minimum specific binding.
(§1) Assays were performed in U-bottomed 96-well polypropylene plates. 10 μL [^125I]-Iodocyanopindolol (0.036 nM final concentration) and 10 μL of test compound (10× final concentration) were added to each test well. For each assay plate 8 replicates were obtained for [^125I]-Iodocyanopindolol binding in the presence of 10 μl vehicle (10% (v/v) DMSO in Assay Buffer; defining maximum binding) or 10 μl Propranolol (10 μM final concentration; defining non-specific binding (NSB)). Membranes were then added to achieve a final volume of 100 μL. The plates were incubated for 2 h at room temperature and then filtered onto PEI coated GF/B filter plates, pre-soaked for 1 h in Assay Buffer, using a 96-well plate Tomtec cell harvester. Five washes with 250 μL wash buffer (50 mM HEPES, 1 mM EDTA, 120 mM NaCl, pH 7.4) were performed at 4° C. to remove unbound radioactivity. The plates were dried then sealed from underneath using Packard plate sealers and MicroScint-O (50 μl) was added to each well. The plates were sealed (TopSeal A) and filter-bound radioactivity was measured with a scintillation counter (TopCount, Packard BioScience) using a 3-minute counting protocol.
Total specific binding (B0) was determined by subtracting the mean NSB from the mean maximum binding. NSB values were also subtracted from values from all other wells. […] Data was fitted to a four parameter logistic equation to determine the compound potency, which was expressed as pIC50 (negative log molar concentration inducing 50% inhibition of [^125I]-Iodocyanopindolol binding).

In the next test the target is T2, Adrenergic β2 (Homo sapiens, UniProt P07550).
T2 construct: Adherent H292 cells were removed from tissue culture flasks; endogenous in cells; host or cells: H292 cells
T2 sequence (P07550 whole entry): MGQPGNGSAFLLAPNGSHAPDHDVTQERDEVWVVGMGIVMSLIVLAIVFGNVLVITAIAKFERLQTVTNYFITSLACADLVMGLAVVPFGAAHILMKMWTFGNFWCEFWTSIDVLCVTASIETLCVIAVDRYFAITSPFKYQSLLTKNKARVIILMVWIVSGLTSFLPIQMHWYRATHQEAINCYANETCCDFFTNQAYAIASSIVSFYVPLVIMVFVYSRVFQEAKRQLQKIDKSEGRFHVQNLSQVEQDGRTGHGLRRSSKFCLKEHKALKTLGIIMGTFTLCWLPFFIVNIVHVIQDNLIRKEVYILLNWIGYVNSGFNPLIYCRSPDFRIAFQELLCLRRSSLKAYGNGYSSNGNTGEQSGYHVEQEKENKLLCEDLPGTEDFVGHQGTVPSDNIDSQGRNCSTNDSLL
Nature of the test: Adrenergic β2 mediated cAMP production in H292 cells (AlphaScreen cAMP detection). Type of test: cell-based. The note with it: for β2 Int Act: Intrinsic Activity, fraction relative to the maximum activity determined for formoterol; for EC50: cAMP production, 60 min at room temperature, 300 μM rolipram, read-out: β2 pEC50 (converted). As for the experimental part:
H292 cells were grown in 225 cm2 flasks incubator at 37° C., 5% CO2 in RPMI medium containing, 10% (v/v) FBS (foetal bovine serum) and 2 mM L-glutamine.
Adherent H292 cells were removed from tissue culture flasks by treatment with Accutase™ cell detachment solution for 15 min. Flasks were incubated for 15 min in a humidified incubator at 37° C., 5% CO2. Detached cells were re-suspended in RPMI media (containing 10% (v/v) FBS and 2 mM L-glutamine) at […]. 10000 cells in 100 μl were added to each well of a tissue-culture-treated 96-well plate and the cells incubated overnight in a humidified incubator at 37° C., 5% CO2. The culture media was removed and cells were washed twice with 100 μl assay buffer and replaced with 50 μL assay buffer (HBSS solution containing 10 mM HEPES pH7.4 and 5 mM glucose). Cells were rested at room temperature for 20 min after which time 25 μl of rolipram (1.2 mM made up in assay buffer containing 2.4% (v/v) dimethylsulphoxide) was added. Cells were incubated with rolipram for 10 min after which time test compounds were added and the cells were incubated for 60 min at room temperature. The final rolipram concentration in the assay was 300 μM and final vehicle concentration was 1.6% (v/v) dimethylsulphoxide. The reaction was stopped by removing supernatants, washing once with 100 μL assay buffer and replacing with 50 μL lysis buffer. The cell monolayer was frozen at −80° C. for 30 min (or overnight).
AlphaScreen™ cAMP Detection
The concentration of cAMP (cyclic adenosine monophosphate) in the cell lysate was determined using AlphaScreen™ methodology. The frozen cell plate was thawed for 20 min on a plate shaker then 10 μl of the cell lysate was transferred to a 96-well white plate. 40 μL of mixed AlphaScreen™ detection beads pre-incubated with biotinylated cAMP, was added to each well and the plate incubated at room temperature for 10 h in the dark. The AlphaScreen™ signal was measured using an EnVision spectrophotometer (Perkin-Elmer Inc.) with the recommended manufacturer's settings. cAMP concentrations were determined by reference to a calibration curve determined in the same experiment using standard cAMP concentrations. Concentration response curves for agonists were constructed and data was fitted to a four parameter logistic equation to determine both the pEC50 and Intrinsic Activity. Intrinsic Activity was expressed as a fraction relative to the maximum activity determined for formoterol in each experiment.
In general terms: Cyclic AMP is a second messenger, typically raised through Gs and lowered through Gi signalling.

The target in test [2] is T3, recombinant human α1D receptor (Homo sapiens, UniProt P25100).
T3 construct: expressed in transfected cells; host or cells: HEK293
T3 sequence (P25100 1-572): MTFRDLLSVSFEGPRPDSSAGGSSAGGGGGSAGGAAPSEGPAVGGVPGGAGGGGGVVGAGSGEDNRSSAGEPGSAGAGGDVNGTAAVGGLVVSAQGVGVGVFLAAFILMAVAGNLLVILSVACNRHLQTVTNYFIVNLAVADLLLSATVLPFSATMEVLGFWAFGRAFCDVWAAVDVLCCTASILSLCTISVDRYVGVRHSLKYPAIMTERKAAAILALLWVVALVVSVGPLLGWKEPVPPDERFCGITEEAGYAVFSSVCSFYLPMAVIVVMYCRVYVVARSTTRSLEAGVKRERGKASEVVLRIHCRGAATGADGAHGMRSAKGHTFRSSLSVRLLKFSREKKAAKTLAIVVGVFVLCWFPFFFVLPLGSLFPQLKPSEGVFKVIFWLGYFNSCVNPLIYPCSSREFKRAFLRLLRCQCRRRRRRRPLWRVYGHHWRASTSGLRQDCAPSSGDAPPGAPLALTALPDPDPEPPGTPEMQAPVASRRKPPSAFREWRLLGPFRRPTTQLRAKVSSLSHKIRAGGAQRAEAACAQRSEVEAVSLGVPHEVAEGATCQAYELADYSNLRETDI
The test is described as follows: Adrenergic α1D selectivity binding assay ([3H]-prazosin). The note with it: inhibition of [3H]-prazosin binding, HEK293 membranes, read-out: α1 bind pIC50 (converted). The procedure: Membranes were prepared from human embryonic kidney 293 (HEK293) cells expressing recombinant human α1D receptor. These were diluted in Assay Buffer (50 mM HEPES, 1 mM EDTA, pH 7.4) to provide a final concentration of membranes that gave a clear window between maximum and minimum specific binding.
as §1, with “10 μl [^3H]-prazosin (0.3” for “10 μL [^125I]-Iodocyanopindolol (0.036”, “10 μl” for “10 μL”, “for [^3H]-prazosin” for “for [^125I]-Iodocyanopindolol”, “10 μL BMY7378” for “10 μl Propranolol”, “250 μl” for “250 μL”, “EDTA,” for “EDTA, 120 mM NaCl,”
Total specific binding (B0) was determined by subtracting the mean NSB from the mean maximum binding. NSB values were also subtracted from values from all other wells. […] Data was fitted to a four parameter logistic equation to determine the compound potency, which was expressed as pIC50 (negative log molar concentration inducing 50% inhibition of [^3H]-prazosin binding).

Test [3] has as its target T4, recombinant human Dopamine Subtype D2s receptors (Homo sapiens, UniProt P14416).
T4 construct: purchased Perkin Elmer
The test is described as follows: Dopamine D2 selectivity binding assay ([3H]-spiperone). Particulars: inhibition of [3H]-spiperone binding, human D2s membranes; read-out: D2 bind pIC50 (converted). The procedure:
Membranes containing recombinant human Dopamine Subtype D2s receptors were obtained from Perkin Elmer. These were diluted in Assay Buffer (50 mM HEPES, 1 mM EDTA, 120 mM NaCl, 0.1% gelatin, pH 7.4) to provide a final concentration of membranes that gave a clear window between maximum and minimum specific binding.
Assays were performed in U-bottomed 96-well polypropylene plates. 30 μL [^3H]-spiperone (0.16 nM final concentration) and 30 μl of test compound (10× final concentration) were added to each test well. For each assay plate 8 replicates were obtained for [^3H]-spiperone binding in the presence of 30 μL vehicle (10% (v/v) DMSO in Assay Buffer; defining maximum binding) or 30 μl Haloperidol (10 μM final concentration; defining non-specific binding (NSB)). Membranes were then added to achieve a final volume of 300 μL. The plates were incubated for 2 h at room temperature and then filtered onto PEI coated GF/B filter plates, pre-soaked for 1 h in Assay Buffer, using a 96-well plate Tomtec cell harvester. Five washes with 250 μl wash buffer (50 mM HEPES, 1 mM EDTA, 120 mM NaCl, pH 7.4) were performed at 4° C. to remove unbound radioactivity. The plates were dried then sealed from underneath using Packard plate sealers and MicroScint-O (50 μl) was added to each well. The plates were sealed (TopSeal A) and filter-bound radioactivity was measured with a scintillation counter (TopCount, Packard BioScience) using a 3-minute counting protocol.
Total specific binding (B0) was determined by subtracting the mean NSB from the mean maximum binding. NSB values were also subtracted from values from all other wells. […] Data was fitted to a four parameter logistic equation to determine the compound potency, which was expressed as pIC50 (negative log molar concentration inducing 50% inhibition of [^3H]-spiperone binding).

Where a name gives a salt, the structure may show the parent alone.

T1 sequence (P08588 whole entry): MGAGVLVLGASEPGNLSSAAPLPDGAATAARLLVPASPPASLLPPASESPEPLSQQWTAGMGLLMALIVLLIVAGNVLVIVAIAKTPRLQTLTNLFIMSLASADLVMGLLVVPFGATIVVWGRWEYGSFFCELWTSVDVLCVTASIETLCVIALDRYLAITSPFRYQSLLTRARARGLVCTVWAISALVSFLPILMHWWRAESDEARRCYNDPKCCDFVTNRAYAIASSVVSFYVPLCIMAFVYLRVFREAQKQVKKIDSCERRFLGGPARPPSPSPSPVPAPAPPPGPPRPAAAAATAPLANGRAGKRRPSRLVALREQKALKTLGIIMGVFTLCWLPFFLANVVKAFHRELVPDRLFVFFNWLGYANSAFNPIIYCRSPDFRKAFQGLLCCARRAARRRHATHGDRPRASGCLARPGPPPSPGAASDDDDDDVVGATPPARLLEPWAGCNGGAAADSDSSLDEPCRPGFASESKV
T4 sequence (P14416 1-414 isoform P14416-2): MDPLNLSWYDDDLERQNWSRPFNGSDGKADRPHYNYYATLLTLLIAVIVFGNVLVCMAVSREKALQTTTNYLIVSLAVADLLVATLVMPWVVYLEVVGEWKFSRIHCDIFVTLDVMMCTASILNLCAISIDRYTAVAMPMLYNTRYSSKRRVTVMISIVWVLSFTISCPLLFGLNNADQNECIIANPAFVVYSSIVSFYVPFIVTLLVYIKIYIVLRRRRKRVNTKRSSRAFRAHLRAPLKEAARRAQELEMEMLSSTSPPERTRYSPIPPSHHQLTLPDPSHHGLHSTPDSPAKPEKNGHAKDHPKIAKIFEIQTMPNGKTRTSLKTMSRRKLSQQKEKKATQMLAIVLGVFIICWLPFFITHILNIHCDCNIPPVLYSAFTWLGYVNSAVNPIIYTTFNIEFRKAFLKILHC

For the compound `Cn1cc(-c2cccc(CCOCCC(=O)N(CCNCCc3ccc(O)c4c3OCC(=O)N4)C3CCCCC3)c2)cn1` [01 and 02], the figures for the IC50 in test [1] and in test [2] were > 7940 nM and 1000 nM, respectively. Moreover, on Adrenergic β2, the “β2 Int Act” value is 0.96. Further, the EC50 at Adrenergic β2 was 6.31 nM.

For the compound `Cn1cc(-c2cccc(CCOCCC(=O)N(CCNCCc3ccc(O)c4c3OCC(=O)N4)C3CCCCCC3)c2)nn1` [Example 06, N-Cycloheptyl-N-(2-(2-(5-hydroxy-3-oxo-3,4-dihydro-2H-benzo[b][1,4]oxazin-8-yl)ethylamino)ethyl)-3-(3-(1-methyl-1H-1,2,3-triazol-4-yl)phenethoxy)propanamide Trifluoroacetic Acid Salt], the IC50 in test [3] is 2000 nM. At Adrenergic β2, the “β2 Int Act” value is recorded as 0.95 and the EC50 was 12.6 nM. The IC50 in test [2] is 1580 nM.

In the case of `O=C1COc2c(CCNCCN(C(=O)CCOCCc3cccc(-c4ncon4)c3)C3CCCCC3)ccc(O)c2N1` [Example 11, 3-(3-(1,2,4-Oxadiazol-3-yl)phenethoxy)-N-cyclohexyl-N-(2-(2-(5-hydroxy-3-oxo-3,4-dihydro-2H-benzo[b][1,4]oxazin-8-yl)ethylamino)ethyl)propanamide Trifluoroacetic Acid Salt], the figures for the IC50 in test [3] and in test [2] were 3980 nM and 631 nM, respectively. In addition, at Adrenergic β2, the “β2 Int Act” value is given as 0.85. In addition, the EC50 at Adrenergic β2 is 10 nM.

With `CCCn1cc(-c2cccc(CCOCCC(=O)N(CCNCCc3ccc(O)c4c3OCC(=O)N4)C3CCCC3)c2)cn1` [Example 18, N-Cyclopentyl-N-(2-(2-(5-hydroxy-3-oxo-3,4-dihydro-2H -benzo[b][1,4]oxazin-8-yl)ethylamino)ethyl)-3-(3-(1-propyl-1H -pyrazol-4-yl)phenethoxy)propanamide Trifluoroacetic Acid Salt], the IC50 in test [1] was > 7940 nM. In addition, on Adrenergic β2, the “β2 Int Act” value worked out at 0.97 and the EC50 was 10 nM. Also, in test [2], the IC50 is 1000 nM.

With `CC(C)[C@@H](C)N(CCNCCc1ccc(O)c2c1OCC(=O)N2)C(=O)CCOCCc1cccc(-c2cnn(C(C)C)c2)c1` [Example 20, (R)—N-(2-(2-(5-Hydroxy-3-oxo-3,4-dihydro-2H-benzo[b][1,4]oxazin-8-yl)ethylamino)ethyl)-3-(3-(1-isopropyl-1H-pyrazol-4-yl)phenethoxy)-N-(3-methylbutan-2-yl)propanamide Trifluoroacetic Acid Salt], the IC50 in test [1] was > 10000 nM. On Adrenergic β2, the “β2 Int Act” value came to 1.00 and the EC50 is 10 nM. Moreover, in test [2], the IC50 was 501 nM.

`CCn1cc(-c2cccc(CCOCCC(=O)N(CCNCCc3ccc(O)c4c3OCC(=O)N4)[C@H](C)C(C)C)c2)cn1` [Example 23, (R)-3-(3-(1-Ethyl-1H-pyrazol-4-yl)phenethoxy)-N-(2-(2-(5-hydroxy-3-oxo-3,4-dihydro-2H-benzo[b][1,4]oxazin-8-yl)ethylamino)ethyl)-N-(3-methylbutan-2-yl)propanamide Trifluoroacetic Acid Salt]: in test [1], the IC50 was > 10000 nM. For the same compound, at Adrenergic β2, the “β2 Int Act” value is given as 0.98 and the EC50 was 6.31 nM. In test [2], the IC50 is 794 nM.

The record behind these values is US8017602B2, “N-(2-(2-(5-hydroxy-3-oxo-3,4-dihydro-2H-benzo[b][1,4]oxazin-8-yl)ethylamino)ethyl)-3-(phenethoxy)propanamide derivatives, processes for their preparation, pharmaceutical compositions containing them and their use in therapy” (AstraZeneca AB, priority 2008, dated 2011).
